# What was measured:
# [1] = system: complement; experiment: Anti-complement activity
# Experimental: A 30-liter jar fermentor was charged with 20 liters of a culture medium of the above formulation, and one flask of the resulting seed culture was cultivated in the culture medium at 28° C. for 5 days with stirring at 300 rpm at an aeration rate of 1 liter per liter of the culture medium per minute. The resulting culture broth was centrifuged at a speed of 8,000 rpm to remove the microbial cells. To the supernatant liquid was added 5 liters of methanol, and the mixture was stirred and then allowed to stand for 3 hours. The mixture was centrifuged and the solid material was removed. The supernatant was extracted with an equal quantity, by volume, of ethyl acetate. The solvent of the ethyl acetate layer was distilled off under reduced pressure. The residue was dissolved in methanol, and passed through a column of activated carbon. The eluate was concentrated to dryness under reduced pressure. The dried mass was dissolved in a mixture of chloroform and ethyl acetate (1:1, v/v) and gel-filtered through a column of Sephadex LH-20. […] The compound had the following physicochemical characteristics.
# [2] = Tautomer equilibrium in solution (NMR); format: physicochemical; details: methanol or pyridine as solvent
# Experimental: Integration of the areas under the peak signals indicates a proportion of the former to the latter of about 73:27. After 2 hours the peak at 9.89 ppm increase further to an extent that the integrated proportions become about 70:30, and this proportion remains unchanged according to NMR analysis even after 63 hours. From this it follows that the compound represented by formula (I) and that represented by formula (II) are present in a molar proportion of about 7:3 in the solution. However, when methanol or pyridine is used as a solvent, the compound of formula (II) is not formed.
# [3] = system: fulminant hepatitis (Schwarzman hepatitis); experiment: Schwarzman hepatitis (endotoxin-induced fulminant hepatitis): serum GOT and LDH levels, liver sections; format: in vivo, S.D. strain rats
# Experimental: The test for evaluating the prophylactic and therapeutic effect of the compound represented by the formula (I) or (II) was conducted in accordance with the method of Mori et al., Kanzo, Vol. 17, pp. 580-589 (1976), using S.D. strain rats having a body weight of about 300 g as test animals, and causing fulminant hepatitis (Schwarzman hepatitis) to occur. More particularly, 4 test groups, each consisting of 5 S.D. strain rats, were administered 0.1 mg/body of endotoxin (LPS: E. coli 0.26: B6, a product of Difco Co.) peritoneally (by injection), and after 48 hours the same endotoxin preparation was administered by injection to each group at a dosage of 0.05, 0.2, 0.5 or 1.2 mg/body for boostering. On the other hand, 5 mg/body of the active ingredient of the agent of this invention was administered peritoneally by injection once a day for 6 days. This treatment was initiated 2 days before the first administration of endotoxin took place and ended on the day after the second administration of endotoxin for boostering. The test animals were victimized (i.e., destroyed and analyzed) 48 hours after the second administration of endotoxin, and the levels of GOT and LDH in the serum of the victimized rats were determined using a UV method described in American Journal of Clinical Pathology, Vol. 47, pp. 419-428 (1967) and Cancer Research, Vol. 14, pp. 513-515 (1954). In addition, degree of occurrence of hepatic necrosis and distribution of endotoxin in the liver were obseved microscopically using sections of liver of the victimized animals. The compound obtained in Synthesis Example 2 was used as the active ingredient. The same procedure was repeated on animals of 4 control groups which were not administered the active ingredient. The levels of GOT and of LDH in the serum determined for the group which received endotoxin boostering amount of 0.5 mg/body at the second administration and for the control group are shown in FIGS. 1 and 2, respectively. In FIGS. 1 and 2, the symbol o indicates the values obtained for each test animal in the group. Evaluation of the results was made based on the average value ± an error obtained by statistical treatment thereof. […] The sections of livers of the test animals of the same groups as above were observed using the fluorescence antibody method described in Journal of Experimental Medicine, Vol. 91, pp. 1-13 (1950).
# [4] = Acute toxicity (intravenous); details: in vivo, rat
# Experimental: The acute toxicity of the compound obtained in Synthesis Example 2 was determined by administering it intravenously to rat. The LD50 value obtained was 500 mg/kg.
# [5] = system: chronic hepatitis; experiment: Clinical data: patient with chronic hepatitis, GOT, GPT and serum bilirubin before and after administration; format: in vivo; details: human, oral, about 500 mg twice a day
# Experimental: This treatment was continued for 2 months.
# The levels of glutamic oxalacetic transaminase (GOT), glutamic pyruvic transaminase (GPT) and serum bilirubin (SB) were determined according to the conventional methods described in Am. J. Clin. Path., 28, 56-63 (1957) (for GOT and GPT) and in J. Biol. Chem., 119, 481-490 (1937) (for SB), and compared with the data obtained before the administration, as shown in Table below.
# [6] = microscopic observation of liver sections (×100), FIG. 3b
# [7] = rat, 5 mg/body i.p. once a day for 6 days, endotoxin booster 0.5 mg/body, vs control group
smiles,measurement,setting,value
"CC1CCC2C(C)(C)C(O)C(O)CC2(C)C12Cc1c(O)cc(C=O)c(C=O)c1O2 (stereo not shown) [Synthesis Example 1, 6,7-dihydroxy-2,5,5,8a-tetramethyl-1,2,3,4,4a,5,6,7,8,8a-decahydronaphthalene-1-spiro-2'-(6',7'-diformyl-4'-hydroxy-2',3'-dihydrobenzofuran)]",anti-complement activity,[1],having an anti-complement activity
"CC1CCC2C(C)(C)C(O)C(O)CC2(C)C12Cc1c(O)cc3c(c1O2)C(O)OC3=O (stereo not shown) [Synthesis Example 2, 4,8-dihydroxy-6-oxo-2,3,6,8-tetrahydro-furo[3,4-g]benzofuran-2-spiro-1'-(6',7'-dihydroxy-2',5',5',8'a-tetramethyl-1',2',3',4',4'a,5',6',7',8',8'a-decahydronaphthalene)]",formation of compound of formula (II) in solution,[2],not formed
same,distribution of endotoxin in the liver,"[3]; fluorescence antibody method, liver sections, FIG. 4b",strongly localized in Kupffer cells but scarcely outside the cells
same,degree of cell degeneration of liver cells,[3]; [6],very slight
same,occurrence of damage of cells of liver,[3]; [6],significantly inhibited or such damage was substantially cured
same,level of GOT in the serum,[3]; [7],significantly lower than those of the control group
same,level of LDH in the serum,[3]; [7],significantly lower than those of the control group
same,occurrence of fulminant hepatitis (Schwarzman hepatitis),"[3]; rat, 5 mg/body i.p. once a day for 6 days, from GOT and LDH levels",significantly inhibits the occurrence of fulminant hepatitis
same,LD50,[4],500 mg/kg
"CC1CCC2C(C)(C)C(O)C(O)CC2(C)C12Cc1c(O)cc(C(=O)O)c(C=O)c1O2 (stereo not shown) [Synthesis Example 3, disodium 6,7-dihydroxy-2,5,5,8a-tetramethyl-1,2,3,4,4a,5,6,7,8,8a-decahydronaphthalene-1-spiro-2'-(6'-carboxylate-7'-formyl-4'-oxide-2',3'-dihydrobenzofuran)]",feeling with respect to fatigue and loss of strength,"[5]; 2 months, described by patient",considerably improved feeling
same,SB (serum bilirubin),"[5]; after administration (2 months), before: 2.6",1.5 mg/dL
same,GPT,"[5]; after administration (2 months), before: 143",67 unit
same,GOT,"[5]; after administration (2 months), before: 180",45 unit

# From US4831053A, “Composition for prophylaxis and therapy of hepatitis” (Otsuka Pharmaceutical Co., Ltd., priority 1979, dated 1989)
